Laboratory results as given in patent US20220387602A1, “BIFUNCTIONAL DEGRADERS AND THEIR METHODS OF USE” (NOVARTIS AG, priority 2019, published 2022).

Target: T1, EPHA4 (Homo sapiens, UniProt P54764)
T1 construct: EGFP (after a Leu that replaces the STOP codon); expressed in transfected cells; host or cells: HEK293A (Invitrogen R70507), lentiviral transduction
Experiment: EPHA4-GFP protein abundance flow cytometry assay in HEK293A
Format: cell-based
Conditions: for EPHA4 Amax: % protein remaining at the concentration of maximum degradation; for DC50: HEK293A EPHA4-GFP sensor cells, 24 h
Procedure: Degradation of BTK, CSK, ABL2, EPHA4 and YES1 was measured in HEK293A cells (Invitrogen R70507) expressing either BTK-GFP and RFP, CSK-GFP and mCherry, GFP-ABL2 and mCherry, EPHA4-GFP and mCherry, or YES1-GFP and mCherry from a stably integrated bicistronic BTK-GFP-iresRFP, CSK-GFP-CHYSEL-mCherry, GFP-ABL2-CHYSEL-mCherry, EPHA4-GFP-CHYSEL-mCherry, or YES1-GFP-CHYSEL-mCherry construct, respectively. Reduction of the GFP signal measured by flow cytometry served as readout for BTK, CSK, ABL2, EPHA4 and YES1 degradation after degrader treatment.
293A BTK-GFP-Ires-RFP, CSK-GFP-CHYSEL-mCherry, GFP-ABL2-CHYSEL-mCherry, EPHA4-GFP-CHYSEL-mCherry, or YES1-GFP-CHYSEL-mCherry sensor cells were generated by lentiviral vector transduction using the pLenti6-BTK-GFP-Ires-RFP, pLenti6-mCherryCHYSEL-EGFP-ABL2, pLenti6-CSK-GFP-CHYSEL-mCherry, pLenti6-EPHA4-GFP-CHYSEL-mCherry or pLenti6-YES1-GFP-CHYSEL-mCherry sensor construct described before. Lentiviral particles were produced in HEK293FT cells (Invitrogen R70007) by co-transfection of 500 ng pLenti6-BTK-GFP-Ires-RFP or pLenti6-IKZF3-GFP-Ires-RFP, 500 ng delta8.71 and 200 ng pVSVG diluted in 100 μL OptiMEM serum free medium (Invitrogen #11058-021) that was mixed after 5 min preincubation with 3 μL of Lipofectamine2000 (Invitrogen #11668-019) in 97 μL OptiMEM serum free medium. The mix was incubated for another 20 min at RT and then added on 1 mL of a freshly prepared suspension of HEK293FT cells in a well of a 6-well plate (concentration 1.2×10^6 cells/mL). 1 day after transfection, the medium was replaced with 1.5 mL of complete growth medium (DMEM high Glucose+10% FCS+1% L-Glutamine+1% NEAA+1% NaPyr.). 48 h post transfection supernatant containing viral transducing particles was collected and frozen at −80° C.
2 days before transduction with viral particles 1×10^5 HEK293A cells (Invitrogen R70507) were seeded in 2 mL growth medium in a well of a 6-well plate. Infection was performed with 90 μL of collected supernatant containing viral transducing particles in 1 mL medium including 8 µg/mL polybrene. 24 h post infection, stably transfected cells were selected with blasticidin at a concentration of 8 μg/mL referred to as stable HEK293A sensor cells.
Stable HEK293A sensor cells were maintained in complete growth medium (DMEM high Glucose+10% FCS+1% L-Glutamine+1% NEAA+1% NaPyr.) with passaging performed twice per week. […] GFP and RFP are read in the channels called FITC and PE, respectively.
Concentration response curves plotting relative reduction of the GFP signal (measured by flow cytometry) versus 10 compound concentrations (starting concentration 10 μM, 3 fold dilution steps) of the compounds allowed generation of DC50 values.

T1 sequence (P54764 20-986, species assumed): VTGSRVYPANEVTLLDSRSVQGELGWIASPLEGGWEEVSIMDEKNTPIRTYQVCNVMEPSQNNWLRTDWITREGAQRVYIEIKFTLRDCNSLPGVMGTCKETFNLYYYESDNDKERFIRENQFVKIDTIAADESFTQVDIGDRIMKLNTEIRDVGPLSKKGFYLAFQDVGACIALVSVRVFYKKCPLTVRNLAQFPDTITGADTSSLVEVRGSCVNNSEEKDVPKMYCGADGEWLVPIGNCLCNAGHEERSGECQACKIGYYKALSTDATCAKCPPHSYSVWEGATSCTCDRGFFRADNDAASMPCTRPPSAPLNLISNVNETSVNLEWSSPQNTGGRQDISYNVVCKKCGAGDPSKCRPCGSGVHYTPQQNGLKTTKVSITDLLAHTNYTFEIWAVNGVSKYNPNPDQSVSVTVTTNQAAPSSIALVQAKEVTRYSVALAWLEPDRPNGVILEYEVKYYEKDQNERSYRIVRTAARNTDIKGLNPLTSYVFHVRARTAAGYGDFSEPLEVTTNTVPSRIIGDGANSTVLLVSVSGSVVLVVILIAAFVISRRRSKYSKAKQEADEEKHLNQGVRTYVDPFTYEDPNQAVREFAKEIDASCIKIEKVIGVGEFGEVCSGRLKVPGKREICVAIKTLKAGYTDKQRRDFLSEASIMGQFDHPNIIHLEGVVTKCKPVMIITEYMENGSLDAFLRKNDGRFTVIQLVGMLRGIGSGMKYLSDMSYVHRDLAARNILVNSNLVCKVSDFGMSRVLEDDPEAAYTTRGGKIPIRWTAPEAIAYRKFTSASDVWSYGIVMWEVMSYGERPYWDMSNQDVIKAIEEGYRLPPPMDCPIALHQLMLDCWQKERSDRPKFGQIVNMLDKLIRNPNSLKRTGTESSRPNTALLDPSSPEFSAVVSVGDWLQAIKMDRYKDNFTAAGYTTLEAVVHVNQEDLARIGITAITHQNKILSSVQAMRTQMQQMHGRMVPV

SMILES: COc1ccc(C(=O)N2CCC3(CCN(C(=O)CCCCCCCN4CCN(c5cc(Nc6ncc(C(=O)Nc7c(C)cccc7Cl)s6)nc(C)n5)CC4)CC3)CC2)cc1N1CCC(=O)NC1=O [compound 06, N-(2-chloro-6-methylphenyl)-2-((6-(4-(8-(9-(3-(2,4-dioxotetrahydropyrimidin-1(2H)-yl)-4-methoxybenzoyl)-3,9-diazaspiro[5.5]undecan-3-yl)-8-oxooctyl)piperazin-1-yl)-2-methylpyrimidin-4-yl)amino)thiazole-5-carboxamide]
- EPHA4 Amax: 9%
- DC50: 4 nM

SMILES: COc1ccc(C(=O)N2CCC3(CCN(C(=O)CN4CCN(c5cc(Nc6ncc(C(=O)Nc7c(C)cccc7Cl)s6)nc(C)n5)CC4)CC3)CC2)cc1N1CCC(=O)NC1=O [compound 07, N-(2-chloro-6-methylphenyl)-2-((6-(4-(2-(9-(3-(2,4-dioxotetrahydropyrimidin-1(2H)-yl)-4-methoxybenzoyl)-3,9-diazaspiro[5.5]undecan-3-yl)-2-oxoethyl)piperazin-1-yl)-2-methylpyrimidin-4-yl)amino)thiazole-5-carboxamide]
- EPHA4 Amax: 9%
- DC50: 83 nM
